Experimental findings from PubChem BioAssay (NCI) are described below.

SMILES strings stand for the structures. Where “and” joins values, the source holds several entries; their conditions need not be identical. Equal entries are not always repeated.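 A five-concentration, 48-hour dose response in 96-well plates underlies each endpoint, interpolated linearly between surrounding concentrations. Abbreviation: GI50, concentration required for 50% inhibition of growth. TGI: total growth inhibition.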

Common to all, as to test: inhibition of tumour cell growth, NCI panel, 48 h
Experiment [1] concerns A498 renal.
Experiment [2] deals with CAKI-1 renal.
The subject of experiment [3] is COLO 205 colon.
Experiment [4] relates to RXF 393 renal.
Experiment [5] has as its system SF-268 CNS.
Experiment [6] relates to SK-MEL-2 melanoma.
Experiment [7] concerns SK-MEL-5 melanoma.
Experiment [8] has as its system SN12C renal.
For experiment [9], the system named is SNB-19 CNS.
The subject of experiment [10] is TK-10 renal.

As for `CC(C)=CC(=O)Cc1nc2cc(C)c(C)cc2[nH]c1=O`, the TGI in experiment [1], in experiment [2], in experiment [3], in experiment [4], in experiment [5] and in [6] was > 100 µM in each case. The TGI in experiment [7], in experiment [8], in experiment [9] and in [10] was > 100 µM in each case.
Consider `CCCN(CCC)c1ccc(/C=N/NC(=O)c2cccnc2)c(Cl)c1`, for which the GI50 is 161 nM in [1]; 12.1 µM in experiment [2]; 6.29 µM in [3]; 11.5 µM in [4]; 15.5 µM in experiment [5]; 14.2 µM in experiment [6]. Moreover, the GI50 in experiment [7] is 6.09 µM; in experiment [8], 14.1 µM; in [9], 16.6 µM; in [10], 0.5 µM. The TGI in experiment [1] came to 0.318 µM; in experiment [2], 58 µM; in experiment [3] it was 22.3 µM; in experiment [4] it was 25.3 µM; in experiment [5], 38.9 µM; in experiment [6] it was 30.4 µM. Besides, the TGI in [7] is 19 µM; in [8] it was 34.3 µM; in experiment [9] it was > 100 µM; in experiment [10], 3.15 µM.
On to `O=C(/C=C\c1ccc(Cl)cc1Cl)c1cccs1`, for which the TGI came out at 39 µM in [1]; 80.4 µM in [2]; 30.7 µM in experiment [3]; 44.3 µM in [4]; 53.3 µM in [5]; 35.5 µM in [6]. Also, the TGI is 29.9 µM in experiment [7], 32.1 µM in [8], 33.7 µM in [9] and 78.9 µM in [10].
In the case of `CCCc1nc2c(C)cc(-c3nc4ccccc4n3C)cc2n1Cc1ccc(-c2ccccc2C(=O)O)cc1`, the GI50 is 20400 nM in [1]; 22.6 µM in [2]; 42.4 µM in experiment [3]; 22.4 µM in experiment [4]; 44.1 µM in experiment [5]; 36.6 µM in [6]. In addition, the GI50 is 25.8 µM in experiment [7], 33.3 µM in experiment [8], 39.4 µM in experiment [9] and 55.8 µM in [10]. Further, the TGI is > 100 µM in [1]; 61.3 µM in [2]; > 100 µM in [3]; 82.2 µM in experiment [4]; > 100 µM in experiment [5]; 97.3 µM in experiment [6]. The TGI in experiment [7], in experiment [8], in experiment [9] and in [10] was > 100 µM throughout.
Turning to `NC1=N/C(=C2/CCNC(=O)c3[nH]c(Br)cc32)C(=O)N1`, the GI50 is 45900 nM and > 100000 nM in experiment [1]; > 33.9 µM and 5.68 µM in [2]; 12.6 µM and 44.3 µM in experiment [3]; 0.975 µM and 2.9 µM in experiment [6]; 19.7 µM and 40.6 µM in experiment [7]. Besides, the TGI in [1] is > 100 µM; in experiment [2], > 100 µM; in experiment [3] it was > 100 µM; in experiment [4], > 100 µM; in experiment [5], 59.9 µM and > 69.6 µM; in experiment [6] it was 8.72 µM and 26.3 µM. Besides, the TGI in experiment [7] was > 100 µM; in experiment [8], > 100 µM; in experiment [9] it was > 100 µM; in experiment [10], > 54.9 µM.
As for `CCOC(=O)c1sc(Nc2ccc(Cl)cc2)nc1C`, the GI50 in experiment [1] was 1790 nM; in [2], 2.09 µM; in experiment [3] it was 1.83 µM; in [4], 2.11 µM; in [5] it was 1.72 µM; in experiment [6], 2.1 µM. The GI50 in experiment [7] was 1.44 µM; in experiment [8], 1.75 µM; in [9], 2.08 µM; in [10], 2.42 µM. Moreover, the TGI in experiment [1] is 5.44 µM; in experiment [2], 6.51 µM; in experiment [3] it was 3.59 µM; in [4] it was 4.75 µM; in experiment [5], 3.7 µM; in [6], 4.2 µM. The TGI in experiment [7] stood at 2.76 µM; in experiment [8] it was 4.81 µM; in [9] it was 6.25 µM; in experiment [10], 5.08 µM.
Turning to `Cc1cc(Cl)cc2c1NC(=O)C2(O)C(C)C(=O)c1ccc(Cl)cc1` (stereo not given), the TGI in experiment [1] was > 91.6 µM; in [2], > 100 µM; in [3] it was > 100 µM; in experiment [4], 89.8 µM; in experiment [5] it was > 100 µM; in [6], > 100 µM. The TGI in [7] is > 64.7 µM; in experiment [8], > 100 µM; in [9], > 100 µM; in experiment [10], > 100 µM.
As to `NS(=O)(=O)c1ccc(N2N=C3c4ccccc4CC3C2c2ccc(Cl)cc2)cc1` (stereo not given), the GI50 is 2550 nM in experiment [1]; 18.2 µM in experiment [2]; 4.99 µM in [3]; 5.07 µM in experiment [4]; 22.1 µM in [5]; 8.23 µM in [6]. For the same compound, the GI50 in [7] was 2.3 µM; in [8], 6.75 µM; in experiment [9], 17.3 µM; in [10], 8.32 µM. In addition, the TGI in experiment [1] was 6.6 µM; in [2], 32.8 µM; in experiment [3], > 100 µM; in [4], 19.7 µM; in [5] it was 54 µM; in [6], 28.4 µM. The TGI is 5.85 µM in [7], 25.6 µM in experiment [8], > 100 µM in [9] and 27.3 µM in [10].
With `NCCNC(=S)S`, the TGI in experiment [1] is > 100 µM; in [2], > 100 µM; in experiment [3], > 100 µM; in experiment [4] it was > 100 µM; in [5], 31.1 µM; in experiment [6], > 100 µM. Further, the TGI in [7], in experiment [8], in experiment [9] and in experiment [10] was > 100 µM each time.
With `Nc1ncnc2c1ncn2C1OC(CO)=CC1O` (stereo not given), the TGI in experiment [1], in [2], in experiment [3], in experiment [4], in experiment [5] and in experiment [6] was > 37.5 µM in each case. For the same compound, the TGI in [7], in experiment [8], in [9] and in experiment [10] was > 37.5 µM each time.
